Experimental data published in patent US6914045B2, “Glycopeptide antibiotics” (Wyeth Holdings Corporation, priority 2001, dated 2005).
In brackets after ≈: the same amount, converted by molar mass.

How the values were obtained:
[1] = test system: Enterococcus sp.; test: in vitro antibacterial evaluation, MIC by broth dilution; assay type: cell-based; conditions: broth dilution, 18 hours at 35° C.
Outline: (§1)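 Following National Committee for Clinical Laboratory Standards recommendations (M7-A2), susceptibility was measured by dilution in Muller-Hinton II […]. Bacteria were seeded at 5×10^5 CFU/mL against compound concentrations from 64 down to 0.06 μg/mL.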

[2] = test system: Staphylococcus sp.; test: as above; assay type: cell-based; conditions: broth dilution, 18 hours at 35° C.; for MIC Staphylococcus aureus (ATCC 29213): strain ATCC 29213; for MIC Staphylococcus aureus (GC 1131): strain GC 1131; for MIC Staphylococcus aureus (GC 3051): strain GC 3051; for MIC Staphylococcus aureus (GC 3053): strain GC 3053; for MIC Staphylococcus aureus (GC 4541): strain GC 4541; for MIC Staphylococcus aureus (GC 4542): strain GC 4542; for MIC Staphylococcus aureus-SMITH (GC 4543): strain GC 4543; for MIC Staphylococcus aureus (GC 4544): strain GC 4544; for MIC Staphylococcus aureus (GC 4545): strain GC 4545; for MIC Staphylococcus haemolyticus (GC 4546): strain GC 4546; for MIC Coagulase Negative Staphylococcus (GC 4547): strain GC 4547; for MIC Coagulase Negative Staphylococcus (GC 4548): strain GC 4548; for MIC Coagulase Negative Staphylococcus (GC 4549): strain GC 4549; for MIC Coagulase Negative Staphylococcus (GC 4551): strain GC 4551; for MIC Coagulase Negative Staphylococcus (GC 6257): strain GC 6257
Outline: as §1

[3] = test system: Streptococcus sp.; test: as above; assay type: cell-based; conditions: broth dilution, 18 hours at 35° C.
Outline: as §1

[4] = anatomic pathology (histopathology of heart and kidney) in mice; assay type: in vivo; conditions: CD-1 mice, 20 mg/kg intravenously daily for 9 days, necropsy day 10, microscopic histopathology
Procedure: Samples of tissues from necropsied mice were formalin-fixed, paraffin-embedded, sectioned, stained with hematoxylin and eosin, and examined microscopically. Histopathologic findings were recorded. These findings were subjectively graded on a scale corresponding to slight, mild, moderate, marked and severe as compared to untreated controls.

[5] = test system: Escherichia coli; test: in vitro antibacterial evaluation, MIC by broth dilution; assay type: cell-based; conditions: 18 hours at 35° C.
Outline: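 Broth dilution in Muller-Hinton II medium per NCCLS standard M7-A2, with an inoculum of 5×10^5 CFU/mL and antibiotic tested over 64-0.06 μg/mL. MIC was taken as the lowest concentration inhibiting visible growth.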

CC(c1ccccc1)C1NC(=O)CNC(=O)C(CO)NC(=O)C(C(O)C2CN(Cc3ccc(C(C)(C)C)cc3)C(=N)N2C2OC(CO)C(O)C(O)C2O)NC(=O)C(C(O)C2CNC(=N)N2)NC(=O)C(Cc2ccc(OC3OC(CO)C(OC4OC(CO)C(O)C(O)C4O)C(O)C3O)cc2)NC1=O (stereo not drawn) [Example 60, Cyclo[glycyl-β-methylphenylalanyl-O-(4-O-hexopyranosylhexopyranosyl)tyrosl-(2-iminoimidazolidin-4-yl)seryl-3-[1-(4-tert-butylbenzyl)-3-hexopyranosyl-2-iminoimidazolidin-4-yl]-serylseryl]]
MIC Enterococcus avium (GC 4558) ([1]; Enterococcus avium (GC 4558)): 128 µg/mL (≈ 88.8 µM) | MIC Enterococcus faecalis (ATCC 29212) ([1]; Enterococcus faecalis (ATCC 29212)): >128 µg/mL | MIC Enterococcus faecalis (GC 4552) ([1]; Enterococcus faecalis (GC 4552)): >128 µg/mL | MIC Enterococcus faecalis (GC 4553) ([1]; Enterococcus faecalis (GC 4553)): 128 µg/mL (≈ 88.8 µM) | MIC Enterococcus faecalis (GC 4554) ([1]; Enterococcus faecalis (GC 4554)): >128 µg/mL | MIC Enterococcus faecalis (GC 6189) ([1]; Enterococcus faecalis (GC 6189)): >128 µg/mL | MIC Enterococcus faecium (GC 2243) ([1]; Enterococcus faecium (GC 2243)): >128 µg/mL | MIC Enterococcus faecium (GC 4556) ([1]; Enterococcus faecium (GC 4556)): >128 µg/mL | MIC Enterococcus faecium (GC 4557) ([1]; Enterococcus faecium (GC 4557)): 128 µg/mL (≈ 88.8 µM) | MIC Enterococcus avium (GC 4558) [1]: 128 µg/mL (≈ 88.8 µM) | MIC Enterococcus faecalis (ATCC 29212) [1]: >128 µg/mL | MIC Enterococcus faecalis (GC 2242) [1]: >128 µg/mL | MIC Enterococcus faecalis (GC 2691) [1]: >128 µg/mL | MIC Enterococcus faecalis (GC 3059) [1]: >128 µg/mL | MIC Enterococcus faecalis (GC 4552) [1]: >128 µg/mL | MIC Enterococcus faecalis (GC 4553) [1]: 128 µg/mL (≈ 88.8 µM) | MIC Enterococcus faecalis (GC 4554) [1]: >128 µg/mL | MIC Enterococcus faecalis (GC 6189) [1]: >128 µg/mL | MIC Enterococcus faecium (GC 2243) [1]: >128 µg/mL | MIC Enterococcus faecium (GC 4556) [1]: >128 µg/mL | MIC Enterococcus faecium (GC 4557) [1]: 128 µg/mL (≈ 88.8 µM) | MIC Enterococcus faecalis (GC 2242) ([1]; strain GC 2242): >128 µg/mL | MIC Enterococcus faecalis (GC 2691) ([1]; strain GC 2691): >128 µg/mL | MIC Enterococcus faecalis (GC 3059) ([1]; strain GC 3059): >128 µg/mL | MIC Staphylococcus aureus (ATCC 29213) [2]: >128 µg/mL | MIC Staphylococcus aureus (GC 1131) [2]: >128 µg/mL | MIC Staphylococcus aureus (GC 3051) [2]: >128 µg/mL | MIC Staphylococcus aureus (GC 3053) [2]: >128 µg/mL | MIC Staphylococcus aureus (GC 4541) [2]: >128 µg/mL | MIC Staphylococcus aureus (GC 4542) [2]: >128 µg/mL | MIC Staphylococcus aureus-SMITH (GC 4543) [2]: >128 µg/mL | MIC Staphylococcus aureus (GC 4544) [2]: >128 µg/mL | MIC Staphylococcus aureus (GC 4545) [2]: >128 µg/mL | MIC Staphylococcus haemolyticus (GC 4546) [2]: >128 µg/mL | MIC Coagulase Negative Staphylococcus (GC 4547) [2]: >128 µg/mL | MIC Coagulase Negative Staphylococcus (GC 4548) [2]: >128 µg/mL | MIC Coagulase Negative Staphylococcus (GC 4549) [2]: >128 µg/mL | MIC Coagulase Negative Staphylococcus (GC 4551) [2]: >128 µg/mL | MIC Coagulase Negative Staphylococcus (GC 6257) [2]: >128 µg/mL | MIC Streptococcus agalactiae (GC 4564) [3]: >128 µg/mL | MIC Streptococcus pneumoniae (ATCC 6301) [3]: 128 µg/mL (≈ 88.8 µM) | MIC Streptococcus pneumoniae (GC 1894) [3]: 64 µg/mL (≈ 44.4 µM) | MIC Streptococcus pneumoniae (GC 4565) [3]: 128 µg/mL (≈ 88.8 µM) | MIC Streptococcus pyogenes (GC 4563) [3]: >128 µg/mL | MIC Streptococcus pneumoniae (ATCC 6301) ([3]; strain ATCC 6301): 128 µg/mL (≈ 88.8 µM) | MIC Streptococcus pneumoniae (GC 1894) ([3]; strain GC 1894): 64 µg/mL (≈ 44.4 µM) | MIC Streptococcus pyogenes (GC 4563) ([3]; strain GC 4563): >128 µg/mL | MIC Streptococcus agalactiae (GC 4564) ([3]; strain GC 4564): >128 µg/mL | MIC Streptococcus pneumoniae (GC 4565) ([3]; strain GC 4565): 128 µg/mL (≈ 88.8 µM) | Anatomical Pathology (Day 10), Heart [4]: 0 | Anatomical Pathology (Day 10), Kidney [4]: 0 | MIC Escherichia coli (ATCC 25922) [5]: >128 µg/mL | MIC Escherichia coli (GC 4559) [5]: >128 µg/mL | MIC Escherichia coli (GC 4560) [5]: 16 µg/mL (≈ 11.1 µM)

CCCCCCCN1CC(C(O)C2NC(=O)C(C(O)C3CNC(=N)N3)NC(=O)C(Cc3ccc(OC4OC(CO)C(OC5OC(CO)C(O)C(O)C5O)C(O)C4O)cc3)NC(=O)C(C(C)c3ccccc3)NC(=O)CNC(=O)C(CO)NC2=O)N(C2OC(CO)C(O)C(O)C2O)C1=N (stereo not drawn) [Example 71, Cyclo[glycyl-β-methylphenylalanyl-O-(4-O-hexopyranosylhexopyranosyl)tyrosyl-3-(2-iminoimidazolidin-4-yl)seryl-3-[1-heptyl-3-hexopyranosyl-2-iminoimidazolidin-4-yl]serylseryl]]
MIC Enterococcus avium (GC 4558) [1]: >128 µg/mL | MIC Enterococcus faecalis (ATCC 29212) [1]: >128 µg/mL | MIC Enterococcus faecalis (GC 2242) [1]: >128 µg/mL | MIC Enterococcus faecalis (GC 2691) [1]: >128 µg/mL | MIC Enterococcus faecalis (GC 3059) [1]: >128 µg/mL | MIC Enterococcus faecalis (GC 4552) [1]: >128 µg/mL | MIC Enterococcus faecalis (GC 4553) [1]: >128 µg/mL | MIC Enterococcus faecalis (GC 4554) [1]: >128 µg/mL | MIC Enterococcus faecalis (GC 6189) [1]: >128 µg/mL | MIC Enterococcus faecium (GC 2243) [1]: >128 µg/mL | MIC Enterococcus faecium (GC 4556) [1]: >128 µg/mL | MIC Enterococcus faecium (GC 4557) [1]: >128 µg/mL | MIC Staphylococcus aureus (ATCC 29213) [2]: >128 µg/mL | MIC Staphylococcus aureus (GC 1131) [2]: >128 µg/mL | MIC Staphylococcus aureus (GC 3051) [2]: >128 µg/mL | MIC Staphylococcus aureus (GC 3053) [2]: >128 µg/mL | MIC Staphylococcus aureus (GC 4541) [2]: >128 µg/mL | MIC Staphylococcus aureus (GC 4542) [2]: >128 µg/mL | MIC Staphylococcus aureus-SMITH (GC 4543) [2]: >128 µg/mL | MIC Staphylococcus aureus (GC 4544) [2]: >128 µg/mL | MIC Staphylococcus aureus (GC 4545) [2]: >128 µg/mL | MIC Staphylococcus haemolyticus (GC 4546) [2]: >128 µg/mL | MIC Coagulase Negative Staphylococcus (GC 4547) [2]: >128 µg/mL | MIC Coagulase Negative Staphylococcus (GC 4548) [2]: >128 µg/mL | MIC Coagulase Negative Staphylococcus (GC 4549) [2]: >128 µg/mL | MIC Coagulase Negative Staphylococcus (GC 4551) [2]: >128 µg/mL | MIC Coagulase Negative Staphylococcus (GC 6257) [2]: >128 µg/mL | MIC Streptococcus agalactiae (GC 4564) [3]: >128 µg/mL | MIC Streptococcus pneumoniae (ATCC 6301) [3]: >128 µg/mL | MIC Streptococcus pneumoniae (GC 1894) [3]: >128 µg/mL | MIC Streptococcus pneumoniae (GC 4565) [3]: >128 µg/mL | MIC Streptococcus pyogenes (GC 4563) [3]: >128 µg/mL | Anatomical Pathology (Day 10), Heart [4]: 0 | Anatomical Pathology (Day 10), Kidney [4]: 0 | MIC Escherichia coli (ATCC 25922) [5]: >128 µg/mL | MIC Escherichia coli (GC 4559) [5]: >128 µg/mL | MIC Escherichia coli (GC 4560) [5]: 128 µg/mL (≈ 91.9 µM)
